Like-named read-outs stand apart in the source and are kept apart here. *1 amine or outer side, *2 acyl side, *3 side chain or, on linkers, in order; H or OH if unused. Where a SMILES comes first, the peptide text is derived from it. [ ]: non-standard residue; d: D form. The star is where a group is joined. Benzothienyl2CO(5-CF2PO3H2) = O=C(c1cc2cc(C(F)(F)P(=O)(O)O)ccc2s1)*; βAla(N-(4-Br-phenyl)) = O=C(CCN(c1ccc(Br)cc1)[*:1])[*:2]; NHBn(4-(4-Me-thiazol-5-yl)) = Cc1ncsc1-c1ccc(CN*)cc1; NH(CH2)8CO = O=C(CCCCCCCCN[*:1])[*:2]; Hyp = O=C(O)[C@@H]1C[C@@H](O)CN1; Tle = CC(C)(C)[C@H](N)C(=O)O
Target: T1, STAT6 (Homo sapiens, UniProt P42226)
T1 construct: endogenous in cells; host or cells: MOLM-16, KU-812, SKNO1, MB231, L1236
T1 sequence (P42226 1-847): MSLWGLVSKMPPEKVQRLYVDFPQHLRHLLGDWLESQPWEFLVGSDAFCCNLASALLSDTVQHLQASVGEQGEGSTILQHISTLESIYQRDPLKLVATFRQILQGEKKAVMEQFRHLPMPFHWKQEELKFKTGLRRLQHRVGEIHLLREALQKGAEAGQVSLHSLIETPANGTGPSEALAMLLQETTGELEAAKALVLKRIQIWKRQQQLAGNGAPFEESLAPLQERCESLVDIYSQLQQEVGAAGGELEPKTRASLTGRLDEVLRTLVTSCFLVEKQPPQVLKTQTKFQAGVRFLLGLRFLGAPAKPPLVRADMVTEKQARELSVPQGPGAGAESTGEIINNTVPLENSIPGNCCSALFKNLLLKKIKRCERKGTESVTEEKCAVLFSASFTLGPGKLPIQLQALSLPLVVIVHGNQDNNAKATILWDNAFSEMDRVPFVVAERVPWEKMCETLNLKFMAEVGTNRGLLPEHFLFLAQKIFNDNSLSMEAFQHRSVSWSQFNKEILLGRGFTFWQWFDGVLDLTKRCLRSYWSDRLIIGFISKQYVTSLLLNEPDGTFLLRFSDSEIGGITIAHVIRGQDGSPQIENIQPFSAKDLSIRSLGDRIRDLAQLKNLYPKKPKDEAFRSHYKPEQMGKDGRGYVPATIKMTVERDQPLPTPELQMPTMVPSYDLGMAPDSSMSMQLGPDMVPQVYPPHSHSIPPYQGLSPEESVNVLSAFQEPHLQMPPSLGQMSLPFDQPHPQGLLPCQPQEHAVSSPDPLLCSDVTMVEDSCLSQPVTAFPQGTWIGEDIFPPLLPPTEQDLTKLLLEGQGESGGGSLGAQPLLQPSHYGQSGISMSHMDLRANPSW
Test: Immunoblotting (Western blot) analysis of STAT6 degradation efficiency of degraders in treated cells
Assay type: cell-based
Experimental: Evaluation of the degradation efficiency of degraders may be accomplished by immunoblotting analysis. The representative general protocol is the following:
Cells are maintained in the appropriate culture medium with 10% FBS at 37° C. and an atmosphere of 5% CO2. Cell lines are used within three months of thawing fresh vials. Cells are lysed 1× Cell Lysis Buffer (Cell Signaling Technology, #9803), resolved by SDS-PAGE NuPAGE gel (Thermo Fisher Scientific), and transferred to a PVDF membrane (Millipore). Membranes are blocked using Odyssey TBS Blocker Buffer (LI-COR). IRDye 680RD and 800CW Dye-labeled secondary antibodies (LI-COR) are used. The washed membranes are scanned using Odyssey CLx imager (LI-COR). The intensity of Western blot signaling is quantitated using the Odyssey software. Primary antibodies used are: STAT5 Rabbit mAb (Cell Signaling Technology, #94205), STAT6 Rabbit mAb (Cell Signaling Technology, #5397) and GAPDH mouse monoclonal antibody (Santa Cruz Biotechnology, sc-47724).
To evaluate the degradation efficiency of degraders, immunoblotting analysis was performed. The general protocol is the following.
About 1 million cells for each data point were treated with compounds at indicated concentrations and durations. Untreated and treated cells in cell culture medium were transferred into tubes, followed by centrifugation at 3,000 rpm and 4° C. for 6 min Supernatants were removed from tubes and radioimmunoprecipitation assay (RIPA) lysis buffer supplemented with 1% protease inhibitor cocktail (Fisher Scientific cat. PI87786) and phosphatase inhibitor (Roche cat. 04906837001) were added to tubes containing the remaining cell pellets. The tubes were then left on ice for 30 min and placed in a −80° C. freezer. Subsequently they were thawed in 37° C. water, then centrifuged at 14,000 rpm for 15 min and the cell lysates transferred to new tubes. The concentration of total proteins in each tube was calculated using the Pierce BCA protein Assay kit (cat. 23225). Based on the calculated protein concentration, cell lysates containing approximately the same amount of proteins were transferred to new tubes, then distilled water and 4× Protein Sample Loading Buffer for Western Blots (LI-COR cat. 928-40004) supplemented with 20% of mercaptoethanol (Sigma Aldrich cat. M6250) were added on ice. The cell lysates were then reduced and denatured at 95° C. for 5 min. From the tubes containing cell lysates an equal amount of protein samples (20-40 μg) was loaded into precast 8%, 10%, 4%-12%, or 4%-20% Tris-glycine gels (Novex) filled with Tris-glycine SDS running buffer. After the proteins were resolved, they were transferred onto Immobile-FL PVDF Membrane (Millipore Sigma cat. IPFL00010), using Mini Trans-Blot Electrophoretic Transfer Cell (Bio-Rad 1703930). The membranes were blocked with Intercept Blocking Buffer (LI-COR cat. 927-70001) in LI-COR Western Blot boxes for 1 h at rt. The membranes were washed with 1× Tris-buffered saline-Tween-20 (TBST, 1× solution was made from 20×TBST solution, ThermoFisher Scientific cat. 28360) for 5 min 4 times. The membranes were incubated overnight at 4° C. in Intercept Blocking Buffer supplemented with primary antibodies (normally antibody:buffer 1:1000) and Tween-20. The membranes were washed with TBST for 5 min 4 times and were incubated with Intercept Blocking Buffer supplemented with IRDye 800CE Secondary Antibodies, IRDye 680RD Secondary Antibodies (LI-COR biosciences), Tween-20, and 10% SDS solution, for 1 h at rt. The membranes were then washed with TBST for 5 min 4 times and rinsed with deionized water before drying and scanning with Odyssey Dlx Amazing System (LI-COR). The immunoblots were finally quantified by the software.

[1] = L1236 cells, read-out: DC50 S6 L1236
[2] = MOLM-16 cells, class symbols, read-out: DC50 S6 MOLM-16

Row | Compound | DC50 [2] [µM] | other results
1 | Cc1ncsc1-c1ccc([C@H](C)NC(=O)[C@@H]2C[C@@H](O)CN2C(=O)[C@@H](NC(=O)CCCCCCNC(=O)CO[C@H]2C[C@@H](C(=O)N3CCC[C@H](c4ccccc4)C3)N(C(=O)[C@@H](NC(=O)c3cc4cc(C(F)(F)P(=O)(O)O)ccc4s3)C(C)(C)C)C2)C(C)(C)C)cc1 [Compound 439, (difluoro(2-(((S)-1-((2S,4S)-4-(2-((7-(((S)-1-((2S,4R)-4-hydroxy-2-(((S)-1-(4-(4-methylthiazol-5-yl)phenyl)ethyl)carbamoyl)pyrrolidin-1-yl)-3,3-dimethyl-1-oxobutan-2-yl)amino)-7-oxoheptyl)amino)-2-oxoethoxy)-2-((R)-3-phenylpiperidine-1-carbonyl)pyrrolidin-1-yl)-3,3-dimethyl-1-oxobutan-2-yl)carbamoyl)benzo[b]thiophen-5-yl)methyl)phosphonic acid] | > 10 | DC50 [1]: > 10 µM
2 | CC(C)(C)[C@H](NC(=O)c1cc2cc(C(F)(F)P(=O)(O)O)ccc2s1)C(=O)N1Cc2cc(OCC(=O)NCC#Cc3ccc4c(c3)C(=O)N(C3CCC(=O)NC3=O)C4=O)ccc2C[C@H]1C(=O)N1CCO[C@H](c2ccccc2)C1 (stereo partly drawn) [Compound 536, ((2-(((2S)-1-((3S)-7-(2-((3-(2-(2,6-dioxopiperidin-3-yl)-1,3-dioxoisoindolin-5-yl)prop-2-yn-1-yl)amino)-2-oxoethoxy)-3-((R)-2-phenylmorpholine-4-carbonyl)-3,4-dihydroisoquinolin-2(1H)-yl)-3,3-dimethyl-1-oxobutan-2-yl)carbamoyl)benzo[b]thiophen-5-yl)difluoromethyl)phosphonic acid] | 1 to 10 | 
3 | Cc1ncsc1-c1ccc(CNC(=O)[C@@H]2C[C@@H](O)CN2C(=O)[C@@H](NC(=O)CCCCCCCCNC(=O)CCN(C(=O)[C@@H]2CCCN2C(=O)[C@@H](NC(=O)c2cc3cc(C(F)(F)P(=O)(O)O)ccc3s2)C(C)(C)C)c2ccc(Br)cc2)C(C)(C)C)cc1 [Compound 397] ({Benzothienyl2CO(5-CF2PO3H2)}-[Tle]P[βAla(N-(4-Br-phenyl))][NH(CH2)8CO][Tle][Hyp]-{NHBn(4-(4-Me-thiazol-5-yl))}) |  | DC50 (read-out: DC50 S6 MB231, MB231 cells): > 10 µM
4 | Cc1ncsc1-c1ccc([C@H](C)NC(=O)[C@@H]2C[C@@H](O)CN2C(=O)[C@@H](NC(=O)CCCCNC(=O)COc2ccc3c(c2)CN(C(=O)[C@@H](NC(=O)c2cc4cc(C(F)(F)P(=O)(O)O)ccc4s2)C(C)(C)C)[C@H](C(=O)N2CCC[C@H](c4ccccc4)C2)C3)C(C)(C)C)cc1 [Compound 473, (difluoro(2-(((S)-1-((S)-7-(2-((5-(((S)-1-((2S,4R)-4-hydroxy-2-(((S)-1-(4-(4-methylthiazol-5-yl)phenyl)ethyl)carbamoyl)pyrrolidin-1-yl)-3,3-dimethyl-1-oxobutan-2-yl)amino)-5-oxopentyl)amino)-2-oxoethoxy)-3-((R)-3-phenylpiperidine-1-carbonyl)-3,4-dihydroisoquinolin-2(1H)-yl)-3,3-dimethyl-1-oxobutan-2-yl)carbamoyl)benzo[b]thiophen-5-yl)methyl)phosphonic acid] | > 10 | 
5 | CC(C)(C)[C@H](NC(=O)c1cc2cc(C(F)(F)P(=O)(O)O)ccc2s1)C(=O)N1C[C@H](OCCCCCC#Cc2ccc3c(c2)CN(C2CCC(=O)NC2=O)C3=O)C[C@H]1C(=O)N1CCC[C@H](c2ccccc2)C1 (stereo partly drawn) [Compound 603, ((2-(((2S)-1-((2S,4R)-4-((7-(2-(2,6-dioxopiperidin-3-yl)-1-oxoisoindolin-5-yl)hept-6-yn-1-yl)oxy)-2-((R)-3-phenylpiperidine-1-carbonyl)pyrrolidin-1-yl)-3,3-dimethyl-1-oxobutan-2-yl)carbamoyl)benzo[b]thiophen-5-yl)difluoromethyl)phosphonic acid] |  | DC50 (MOLM-16 cells, numeric bound, read-out: DC50 S6 MOLM-16): > 0.3 µM
6 | CC(C)(C)[C@H](NC(=O)c1cc2cc(C(F)(F)P(=O)(O)O)ccc2s1)C(=O)N1CCN(C(=O)CC(=O)NCCCCCC#Cc2ccc3c(c2)C(=O)N(C2CCC(=O)NC2=O)C3=O)C[C@H]1C(=O)N1CCO[C@H](c2ccccc2)C1 (stereo partly drawn) [Compound 516, ((2-(((2S)-1-((2S)-4-(3-((7-(2-(2,6-dioxopiperidin-3-yl)-1,3-dioxoisoindolin-5-yl)hept-6-yn-1-yl)amino)-3-oxopropanoyl)-2-((R)-2-phenylmorpholine-4-carbonyl)piperazin-1-yl)-3,3-dimethyl-1-oxobutan-2-yl)carbamoyl)benzo[b]thiophen-5-yl)difluoromethyl)phosphonic acid] | > 10 | 
7 | CC(C)(C)[C@H](NC(=O)c1cc2cc(C(F)(F)P(=O)(O)O)ccc2s1)C(=O)N1C[C@@H](OCCCCCCCCC#Cc2cccc3c2CN(C2CCC(=O)NC2=O)C3=O)C[C@H]1C(=O)N1CCO[C@H](c2ccccc2)C1 (stereo partly drawn) [Compound 586, ((2-(((2S)-1-((2S,4S)-4-((10-(2-(2,6-dioxopiperidin-3-yl)-1-oxoisoindolin-4-yl)dec-9-yn-1-yl)oxy)-2-((R)-2-phenylmorpholine-4-carbonyl)pyrrolidin-1-yl)-3,3-dimethyl-1-oxobutan-2-yl)carbamoyl)benzo[b]thiophen-5-yl)difluoromethyl)phosphonic acid] | < 0.1 | DC50 [1]: 1 to 10 µM
8 | CC(C)(C)[C@H](NC(=O)c1cc2cc(C(F)(F)P(=O)(O)O)ccc2s1)C(=O)N1CCN(C(=O)CC(=O)NCCCC#Cc2cccc3c2C(=O)N(C2CCC(=O)NC2=O)C3=O)C[C@H]1C(=O)N1CCC[C@H](c2ccccc2)C1 (stereo partly drawn) [Compound 525, ((2-(((2S)-1-((2S)-4-(3-((5-(2-(2,6-dioxopiperidin-3-yl)-1,3-dioxoisoindolin-4-yl)pent-4-yn-1-yl)amino)-3-oxopropanoyl)-2-((R)-3-phenylpiperidine-1-carbonyl)piperazin-1-yl)-3,3-dimethyl-1-oxobutan-2-yl)carbamoyl)benzo[b]thiophen-5-yl)difluoromethyl)phosphonic acid] | > 10 | 

From patent US20230295197A1, “STAT5 and STAT6 Degraders and Uses Thereof” (REGENTS OF THE UNIVERSITY OF MICHICAN, priority 2022, published 2023)
